Values quoted from earlier work in patent US20190269715A1, “COMPOSITIONS AND METHOD OF USE OF A-TYPE PROCYANIDINS” (MARS, INCORPORATED, priority 2004, published 2019).

System: tumor
Conditions: cited from earlier work

For Nobotanin, the anti-tumor activity is listed as “anti-tumor activity”.
